Reference: ChEMBL document CHEMBL5212743, “Selectivity Literature for EUbOPEN Chemogenomics Library wave 3” (2023)
Values belong to the compound of their own block, whether it stands above or below them.

How the values were obtained:
[1] = biological target: Leukocyte tyrosine kinase receptor (Homo sapiens, UniProt P29376); assay: Selectivity interaction (KinomeScan (DiscoverX)) EUB0000250b LTK; settings: at 1 µM
[2] = biological target: Epidermal growth factor receptor (Homo sapiens, UniProt P00533); assay: Selectivity interaction (KinomeScan (DiscoverX)) EUB0000250b EGFR; settings: at 1 µM
[3] = biological target: Ephrin type-A receptor 5 (Homo sapiens) (UniProt P54756); assay: Selectivity interaction (KinomeScan (Eurofins)) EUB0000250b EPHA5; settings: at 1 µM
[4] = biological target: Ephrin type-B receptor 3 (Homo sapiens) (UniProt P54753); assay: Selectivity interaction (KinomeScan (Eurofins)) EUB0000250b EPHB3; settings: at 1 µM
Ephrin type-B receptor 3 (Homo sapiens), sequence (P54753 whole entry): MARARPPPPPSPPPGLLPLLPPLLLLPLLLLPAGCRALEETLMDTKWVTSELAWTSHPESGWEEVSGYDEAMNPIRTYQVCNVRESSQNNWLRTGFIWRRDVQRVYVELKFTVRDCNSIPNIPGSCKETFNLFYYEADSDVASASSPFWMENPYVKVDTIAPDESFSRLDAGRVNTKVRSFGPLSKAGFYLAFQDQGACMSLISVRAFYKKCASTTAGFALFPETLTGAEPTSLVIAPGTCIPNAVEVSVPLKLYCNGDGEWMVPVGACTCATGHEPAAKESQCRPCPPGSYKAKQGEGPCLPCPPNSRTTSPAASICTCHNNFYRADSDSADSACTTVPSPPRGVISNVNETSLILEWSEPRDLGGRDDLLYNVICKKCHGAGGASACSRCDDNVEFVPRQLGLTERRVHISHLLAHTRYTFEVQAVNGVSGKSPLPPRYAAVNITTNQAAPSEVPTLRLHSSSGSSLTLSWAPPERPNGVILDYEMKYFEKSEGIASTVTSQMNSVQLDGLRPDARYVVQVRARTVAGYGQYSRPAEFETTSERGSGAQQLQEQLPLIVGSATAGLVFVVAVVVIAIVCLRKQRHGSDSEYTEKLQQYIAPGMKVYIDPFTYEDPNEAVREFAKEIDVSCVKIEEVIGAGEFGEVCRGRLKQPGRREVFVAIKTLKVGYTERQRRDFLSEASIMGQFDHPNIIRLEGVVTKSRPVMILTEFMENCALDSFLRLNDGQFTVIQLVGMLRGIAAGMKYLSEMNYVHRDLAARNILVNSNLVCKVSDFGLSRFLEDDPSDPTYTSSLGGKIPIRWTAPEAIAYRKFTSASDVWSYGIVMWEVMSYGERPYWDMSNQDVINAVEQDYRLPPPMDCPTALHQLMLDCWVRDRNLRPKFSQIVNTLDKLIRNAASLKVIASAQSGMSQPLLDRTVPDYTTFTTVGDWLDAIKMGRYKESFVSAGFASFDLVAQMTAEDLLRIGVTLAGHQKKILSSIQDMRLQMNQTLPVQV

[5] = biological target: T1, Ephrin type-B receptor 6 (Homo sapiens) (UniProt O15197); assay: Selectivity interaction (KinomeScan (Eurofins)) EUB0000250b EPHB6; settings: at 1 µM
T1 sequence (whole entry): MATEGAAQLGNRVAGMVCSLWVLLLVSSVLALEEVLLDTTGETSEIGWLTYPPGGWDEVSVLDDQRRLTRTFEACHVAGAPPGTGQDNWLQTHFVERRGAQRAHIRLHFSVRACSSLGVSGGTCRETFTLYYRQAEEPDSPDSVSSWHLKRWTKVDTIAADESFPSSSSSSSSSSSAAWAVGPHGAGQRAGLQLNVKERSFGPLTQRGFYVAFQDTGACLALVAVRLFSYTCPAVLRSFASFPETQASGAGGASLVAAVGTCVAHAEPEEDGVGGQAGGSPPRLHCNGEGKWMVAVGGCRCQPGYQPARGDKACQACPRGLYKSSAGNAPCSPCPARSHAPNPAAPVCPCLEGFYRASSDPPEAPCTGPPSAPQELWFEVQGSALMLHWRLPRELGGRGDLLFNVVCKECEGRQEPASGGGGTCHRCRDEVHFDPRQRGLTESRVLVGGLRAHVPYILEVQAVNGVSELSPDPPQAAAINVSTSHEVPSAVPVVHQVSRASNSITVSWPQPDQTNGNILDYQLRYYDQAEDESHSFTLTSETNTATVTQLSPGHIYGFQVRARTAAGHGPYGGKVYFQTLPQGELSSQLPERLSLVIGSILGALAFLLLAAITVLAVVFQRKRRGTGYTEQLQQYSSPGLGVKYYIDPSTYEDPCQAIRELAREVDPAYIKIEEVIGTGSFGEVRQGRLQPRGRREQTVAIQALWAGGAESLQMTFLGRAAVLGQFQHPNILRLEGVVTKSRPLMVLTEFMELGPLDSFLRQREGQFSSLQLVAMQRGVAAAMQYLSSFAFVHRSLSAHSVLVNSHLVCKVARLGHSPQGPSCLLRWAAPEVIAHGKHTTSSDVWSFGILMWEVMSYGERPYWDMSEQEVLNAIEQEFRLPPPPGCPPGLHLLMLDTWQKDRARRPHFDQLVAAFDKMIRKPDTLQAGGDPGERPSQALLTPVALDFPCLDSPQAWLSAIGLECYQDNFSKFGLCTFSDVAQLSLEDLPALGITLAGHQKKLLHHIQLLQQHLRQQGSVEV

[6] = biological target: Tyrosine-protein kinase Fer (Homo sapiens, UniProt P16591); assay: Selectivity interaction (KinomeScan (Eurofins)) EUB0000250b FER; settings: at 1 µM
[7] = biological target: Cyclin-dependent kinase-like 2 (Homo sapiens) (UniProt Q92772); assay: Selectivity interaction (KinomeScan (DiscoverX)) EUB0000240b CDKL2; settings: at 1 µM
Cyclin-dependent kinase-like 2 (Homo sapiens), sequence (Q92772 whole entry): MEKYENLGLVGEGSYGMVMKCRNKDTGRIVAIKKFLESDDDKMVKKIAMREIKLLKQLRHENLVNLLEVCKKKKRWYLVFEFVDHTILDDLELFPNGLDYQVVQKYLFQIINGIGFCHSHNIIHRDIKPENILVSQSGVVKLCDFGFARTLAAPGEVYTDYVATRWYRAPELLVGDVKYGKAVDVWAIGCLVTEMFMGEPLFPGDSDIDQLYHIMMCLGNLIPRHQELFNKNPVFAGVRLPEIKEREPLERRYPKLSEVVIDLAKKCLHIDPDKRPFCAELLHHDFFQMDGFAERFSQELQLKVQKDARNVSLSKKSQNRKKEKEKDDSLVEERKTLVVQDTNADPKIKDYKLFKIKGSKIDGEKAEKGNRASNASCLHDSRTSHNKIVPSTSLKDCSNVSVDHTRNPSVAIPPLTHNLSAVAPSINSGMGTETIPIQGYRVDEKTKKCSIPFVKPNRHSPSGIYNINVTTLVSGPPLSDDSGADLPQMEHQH

[8] = biological target: Kappa-type opioid receptor (Homo sapiens, UniProt P41145); assay: Selectivity interaction (SafetyScreen44™ (Eurofins, ion channels, GPCRs, hydrolases, and other enzymes)) EUB0000282b OPRK1; settings: at 10 µM
[9] = biological target: Sodium-dependent dopamine transporter (Homo sapiens, UniProt Q01959); assay: Selectivity interaction (GPCR panel (PDSP screen)) EUB0000294b SLC6A3; settings: at 10 µM
[10] = biological target: Aurora kinase A (Homo sapiens) (UniProt O14965); assay: Selectivity interaction (KinomeScan (DiscoverX)) EUB0000294b STK6; settings: at 1 µM
Aurora kinase A (Homo sapiens), sequence (O14965 whole entry): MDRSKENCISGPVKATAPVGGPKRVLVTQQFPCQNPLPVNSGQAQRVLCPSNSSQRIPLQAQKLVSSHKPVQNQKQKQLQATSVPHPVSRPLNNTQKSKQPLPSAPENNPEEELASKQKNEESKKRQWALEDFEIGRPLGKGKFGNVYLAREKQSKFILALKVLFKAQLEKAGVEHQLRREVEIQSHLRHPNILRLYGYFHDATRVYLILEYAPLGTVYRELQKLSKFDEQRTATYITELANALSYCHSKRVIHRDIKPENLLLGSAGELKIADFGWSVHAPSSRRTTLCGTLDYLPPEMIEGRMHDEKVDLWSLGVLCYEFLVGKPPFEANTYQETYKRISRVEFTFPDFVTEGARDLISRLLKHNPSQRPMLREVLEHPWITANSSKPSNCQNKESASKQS

[11] = biological target: T2, Dual specificity mitogen-activated protein kinase kinase 5 (Homo sapiens) (UniProt Q13163); assay: Selectivity interaction (KinomeScan (DiscoverX)) EUB0000294b MAP2K5; settings: at 1 µM
T2 sequence (whole entry): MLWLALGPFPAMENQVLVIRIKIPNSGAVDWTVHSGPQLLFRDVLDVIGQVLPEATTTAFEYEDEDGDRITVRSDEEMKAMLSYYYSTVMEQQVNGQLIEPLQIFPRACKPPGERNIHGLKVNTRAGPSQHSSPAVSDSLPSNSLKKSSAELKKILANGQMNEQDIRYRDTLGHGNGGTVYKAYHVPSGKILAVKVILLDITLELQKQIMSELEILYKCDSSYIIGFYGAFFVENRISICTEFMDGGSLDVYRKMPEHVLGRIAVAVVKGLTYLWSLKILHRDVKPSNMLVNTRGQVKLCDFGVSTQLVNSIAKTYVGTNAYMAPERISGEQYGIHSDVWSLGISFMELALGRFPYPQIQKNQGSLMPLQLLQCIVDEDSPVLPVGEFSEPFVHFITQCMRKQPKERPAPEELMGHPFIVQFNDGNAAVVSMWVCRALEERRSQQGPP

Nischarin (Homo sapiens) = Nischarin (Homo sapiens) (UniProt Q9Y2I1); assay: Selectivity interaction (MDS Pharma Service panel (GPCR, ion channels, receptors, and other enzymes, radioligand binding assays)) EUB0000294b NISCH; settings: at 10 µM
Nischarin (Homo sapiens), sequence (Q9Y2I1 whole entry): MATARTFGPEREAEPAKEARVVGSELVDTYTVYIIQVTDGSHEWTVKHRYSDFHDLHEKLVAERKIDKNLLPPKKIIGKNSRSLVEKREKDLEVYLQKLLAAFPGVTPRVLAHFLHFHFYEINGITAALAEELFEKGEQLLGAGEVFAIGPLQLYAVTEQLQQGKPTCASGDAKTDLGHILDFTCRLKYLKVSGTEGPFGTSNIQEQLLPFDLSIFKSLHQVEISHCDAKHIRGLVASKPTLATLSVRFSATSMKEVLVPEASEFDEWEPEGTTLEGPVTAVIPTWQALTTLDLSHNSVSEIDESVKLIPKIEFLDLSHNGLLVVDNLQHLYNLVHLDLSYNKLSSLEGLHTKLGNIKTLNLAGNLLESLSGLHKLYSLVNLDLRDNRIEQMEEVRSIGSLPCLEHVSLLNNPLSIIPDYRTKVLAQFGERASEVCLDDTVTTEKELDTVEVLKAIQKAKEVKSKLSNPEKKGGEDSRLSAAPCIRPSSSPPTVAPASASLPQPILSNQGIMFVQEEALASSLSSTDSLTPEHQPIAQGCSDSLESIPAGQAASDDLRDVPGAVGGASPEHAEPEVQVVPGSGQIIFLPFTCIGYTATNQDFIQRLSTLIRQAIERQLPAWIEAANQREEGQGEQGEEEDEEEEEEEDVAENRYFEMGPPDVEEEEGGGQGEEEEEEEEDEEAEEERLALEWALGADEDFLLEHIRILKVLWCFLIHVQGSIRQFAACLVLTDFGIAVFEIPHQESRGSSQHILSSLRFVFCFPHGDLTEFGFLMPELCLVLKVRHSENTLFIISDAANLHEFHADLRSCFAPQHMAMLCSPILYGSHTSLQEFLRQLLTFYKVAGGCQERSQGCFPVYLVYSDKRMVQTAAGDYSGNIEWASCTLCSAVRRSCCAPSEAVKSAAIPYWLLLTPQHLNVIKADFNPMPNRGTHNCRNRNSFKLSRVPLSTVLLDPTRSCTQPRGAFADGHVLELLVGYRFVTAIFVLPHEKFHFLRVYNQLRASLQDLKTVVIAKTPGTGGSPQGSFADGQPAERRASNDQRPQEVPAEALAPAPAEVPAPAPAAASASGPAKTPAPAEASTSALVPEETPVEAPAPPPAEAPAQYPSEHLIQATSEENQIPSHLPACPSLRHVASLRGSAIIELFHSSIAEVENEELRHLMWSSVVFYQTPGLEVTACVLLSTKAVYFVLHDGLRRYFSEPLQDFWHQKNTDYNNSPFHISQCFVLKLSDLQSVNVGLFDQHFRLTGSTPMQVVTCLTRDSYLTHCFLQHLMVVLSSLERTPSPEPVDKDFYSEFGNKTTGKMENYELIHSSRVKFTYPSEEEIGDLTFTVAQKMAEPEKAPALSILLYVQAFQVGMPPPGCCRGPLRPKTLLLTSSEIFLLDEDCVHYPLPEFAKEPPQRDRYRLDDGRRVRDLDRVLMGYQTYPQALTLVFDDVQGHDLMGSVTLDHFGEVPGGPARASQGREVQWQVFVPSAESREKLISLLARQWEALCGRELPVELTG

[12] = biological target: NT-3 growth factor receptor (Homo sapiens, UniProt Q16288); assay: Selectivity interaction (KinomeScan (DiscoverX)) EUB0000294b NTRK3; settings: at 1 µM
[13] = biological target: T3, Serine/threonine-protein kinase LATS1 (Homo sapiens) (UniProt O95835); assay: Selectivity interaction (KinomeScan (DiscoverX)) EUB0000294b LATS1; settings: at 1 µM
T3 sequence (whole entry): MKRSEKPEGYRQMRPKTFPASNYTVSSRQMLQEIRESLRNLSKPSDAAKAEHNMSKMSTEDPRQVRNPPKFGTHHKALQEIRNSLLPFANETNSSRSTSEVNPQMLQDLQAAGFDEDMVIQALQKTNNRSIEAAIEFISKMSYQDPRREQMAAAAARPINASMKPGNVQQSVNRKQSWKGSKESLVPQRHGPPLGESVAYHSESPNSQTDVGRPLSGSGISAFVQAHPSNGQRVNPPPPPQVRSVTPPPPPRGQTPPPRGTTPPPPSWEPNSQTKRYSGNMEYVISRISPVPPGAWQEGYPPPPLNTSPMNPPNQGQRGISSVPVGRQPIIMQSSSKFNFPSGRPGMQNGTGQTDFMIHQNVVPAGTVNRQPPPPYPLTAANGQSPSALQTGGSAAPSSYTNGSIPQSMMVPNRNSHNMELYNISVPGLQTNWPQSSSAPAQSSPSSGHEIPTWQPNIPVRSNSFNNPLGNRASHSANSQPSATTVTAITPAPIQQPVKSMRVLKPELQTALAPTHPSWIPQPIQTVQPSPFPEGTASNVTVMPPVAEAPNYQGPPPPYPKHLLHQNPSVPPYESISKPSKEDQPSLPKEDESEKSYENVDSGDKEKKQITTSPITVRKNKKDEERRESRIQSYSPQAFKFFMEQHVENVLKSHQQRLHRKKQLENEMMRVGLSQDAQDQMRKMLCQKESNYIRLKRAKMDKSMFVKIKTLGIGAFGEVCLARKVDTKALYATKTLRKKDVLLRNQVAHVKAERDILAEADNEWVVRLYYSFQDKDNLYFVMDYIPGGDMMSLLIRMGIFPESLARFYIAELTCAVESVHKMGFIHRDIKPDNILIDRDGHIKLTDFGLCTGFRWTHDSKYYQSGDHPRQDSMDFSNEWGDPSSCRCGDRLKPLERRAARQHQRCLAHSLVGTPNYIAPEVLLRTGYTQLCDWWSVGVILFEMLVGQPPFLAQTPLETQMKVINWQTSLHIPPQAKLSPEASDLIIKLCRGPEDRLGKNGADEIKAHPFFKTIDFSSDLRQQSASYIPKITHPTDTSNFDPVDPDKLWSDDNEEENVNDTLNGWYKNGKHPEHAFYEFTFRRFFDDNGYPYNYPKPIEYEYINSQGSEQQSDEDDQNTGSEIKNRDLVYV

[14] = biological target: 5'-AMP-activated protein kinase catalytic subunit alpha-1 (Homo sapiens, UniProt Q13131); assay: Selectivity interaction (KinomeScan (DiscoverX)) EUB0000347a PRKAA1; settings: at 1 µM
5'-AMP-activated protein kinase catalytic subunit alpha-1, sequence (Q13131 whole entry, looked up): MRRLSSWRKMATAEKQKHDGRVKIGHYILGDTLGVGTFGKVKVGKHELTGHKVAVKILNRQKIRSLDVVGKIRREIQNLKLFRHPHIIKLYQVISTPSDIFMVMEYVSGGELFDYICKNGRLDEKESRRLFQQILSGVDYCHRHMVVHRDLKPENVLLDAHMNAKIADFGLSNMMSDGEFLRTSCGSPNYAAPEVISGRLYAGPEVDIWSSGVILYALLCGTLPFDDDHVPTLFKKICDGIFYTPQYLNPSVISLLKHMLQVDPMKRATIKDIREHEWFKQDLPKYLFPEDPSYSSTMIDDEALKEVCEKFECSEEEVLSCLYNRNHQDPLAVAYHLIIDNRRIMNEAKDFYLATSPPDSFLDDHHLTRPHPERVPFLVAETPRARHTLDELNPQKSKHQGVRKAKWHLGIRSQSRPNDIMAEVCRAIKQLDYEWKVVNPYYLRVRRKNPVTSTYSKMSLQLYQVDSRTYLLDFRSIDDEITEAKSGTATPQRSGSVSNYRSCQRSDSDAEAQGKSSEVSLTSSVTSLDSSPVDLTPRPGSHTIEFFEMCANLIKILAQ

[15] = biological target: Cyclin-dependent kinase 5 (Homo sapiens) (UniProt Q00535); assay: Selectivity interaction (KinomeScan (DiscoverX)) EUB0000347a CDK5; settings: at 1 µM
[16] = biological target: Dual specificity protein kinase CLK4 (Homo sapiens) (UniProt Q9HAZ1); assay: Selectivity interaction (KinomeScan (DiscoverX)) EUB0000347a CLK4; settings: at 1 µM
Dual specificity protein kinase CLK4 (Homo sapiens), sequence (Q9HAZ1 whole entry, looked up): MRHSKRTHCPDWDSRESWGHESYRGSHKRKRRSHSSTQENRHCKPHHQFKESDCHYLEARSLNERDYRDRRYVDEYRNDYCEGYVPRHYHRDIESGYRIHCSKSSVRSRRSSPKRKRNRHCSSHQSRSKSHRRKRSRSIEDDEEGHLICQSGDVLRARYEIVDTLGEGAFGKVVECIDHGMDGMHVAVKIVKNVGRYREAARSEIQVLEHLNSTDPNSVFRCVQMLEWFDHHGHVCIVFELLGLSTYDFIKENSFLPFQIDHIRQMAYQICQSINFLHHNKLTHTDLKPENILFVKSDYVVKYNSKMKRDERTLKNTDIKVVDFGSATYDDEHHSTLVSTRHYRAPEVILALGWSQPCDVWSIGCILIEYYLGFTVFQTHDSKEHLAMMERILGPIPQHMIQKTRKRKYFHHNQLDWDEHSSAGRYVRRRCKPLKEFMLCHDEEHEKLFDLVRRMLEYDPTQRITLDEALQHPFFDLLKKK

[17] = biological target: T4, Mitogen-activated protein kinase kinase kinase 13 (Homo sapiens) (UniProt O43283); assay: Selectivity interaction (KinomeScan (DiscoverX)) EUB0000347a MAP3K13; settings: at 1 µM
T4 sequence (whole entry): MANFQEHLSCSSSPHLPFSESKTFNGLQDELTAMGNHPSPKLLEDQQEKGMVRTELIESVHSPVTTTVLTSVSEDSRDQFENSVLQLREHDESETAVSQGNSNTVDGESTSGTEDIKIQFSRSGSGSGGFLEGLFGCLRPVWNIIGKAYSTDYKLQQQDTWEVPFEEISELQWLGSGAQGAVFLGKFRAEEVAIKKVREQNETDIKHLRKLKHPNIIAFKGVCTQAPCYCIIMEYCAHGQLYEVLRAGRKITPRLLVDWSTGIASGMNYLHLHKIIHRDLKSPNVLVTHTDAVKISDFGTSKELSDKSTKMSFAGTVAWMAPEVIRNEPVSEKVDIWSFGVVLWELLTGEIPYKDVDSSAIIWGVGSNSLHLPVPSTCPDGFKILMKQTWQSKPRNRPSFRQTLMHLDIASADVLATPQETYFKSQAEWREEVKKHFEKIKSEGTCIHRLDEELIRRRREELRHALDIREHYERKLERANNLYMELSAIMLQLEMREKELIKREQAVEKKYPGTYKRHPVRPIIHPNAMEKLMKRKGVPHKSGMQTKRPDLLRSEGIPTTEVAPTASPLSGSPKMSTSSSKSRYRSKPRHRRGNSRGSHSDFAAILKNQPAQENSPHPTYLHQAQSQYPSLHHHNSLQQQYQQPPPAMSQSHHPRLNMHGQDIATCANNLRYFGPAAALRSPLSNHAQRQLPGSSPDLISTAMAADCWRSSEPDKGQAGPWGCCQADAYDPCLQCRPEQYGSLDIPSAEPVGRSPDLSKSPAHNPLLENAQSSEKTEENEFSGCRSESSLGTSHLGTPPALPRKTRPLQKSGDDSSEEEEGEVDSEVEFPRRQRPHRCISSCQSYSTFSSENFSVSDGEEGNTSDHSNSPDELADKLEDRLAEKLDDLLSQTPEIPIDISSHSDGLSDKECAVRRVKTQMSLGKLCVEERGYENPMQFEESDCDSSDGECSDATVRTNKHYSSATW

[18] = biological target: Dual specificity tyrosine-phosphorylation-regulated kinase 1B (Homo sapiens, UniProt Q9Y463); assay: Selectivity interaction (KinomeScan (DiscoverX)) EUB0000738a DYRK1B; settings: at 1 µM
Dual specificity tyrosine-phosphorylation-regulated kinase 1B, sequence (Q9Y463 whole entry, looked up): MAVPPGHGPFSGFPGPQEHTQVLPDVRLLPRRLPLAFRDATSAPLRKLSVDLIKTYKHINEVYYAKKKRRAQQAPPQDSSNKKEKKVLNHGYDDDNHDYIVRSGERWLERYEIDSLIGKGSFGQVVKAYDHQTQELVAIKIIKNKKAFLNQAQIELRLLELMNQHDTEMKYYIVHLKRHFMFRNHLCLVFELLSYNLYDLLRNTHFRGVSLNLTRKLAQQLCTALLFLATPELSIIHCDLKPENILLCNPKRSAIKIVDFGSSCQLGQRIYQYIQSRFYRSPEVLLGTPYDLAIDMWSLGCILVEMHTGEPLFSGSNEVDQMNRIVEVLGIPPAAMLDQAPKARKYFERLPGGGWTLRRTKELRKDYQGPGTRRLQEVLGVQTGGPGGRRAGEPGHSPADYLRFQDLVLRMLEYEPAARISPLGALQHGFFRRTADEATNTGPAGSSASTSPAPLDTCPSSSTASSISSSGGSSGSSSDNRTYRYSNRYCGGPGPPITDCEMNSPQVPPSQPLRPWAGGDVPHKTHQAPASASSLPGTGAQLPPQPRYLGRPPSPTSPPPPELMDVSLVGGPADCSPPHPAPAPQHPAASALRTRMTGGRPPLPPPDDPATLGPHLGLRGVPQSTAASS

[19] = biological target: T5, Phosphatidylinositol 5-phosphate 4-kinase type-2 beta (Homo sapiens) (UniProt P78356); assay: Selectivity interaction (KinomeScan (DiscoverX)) EUB0000738a PIP4K2B; settings: at 1 µM
T5 sequence (whole entry): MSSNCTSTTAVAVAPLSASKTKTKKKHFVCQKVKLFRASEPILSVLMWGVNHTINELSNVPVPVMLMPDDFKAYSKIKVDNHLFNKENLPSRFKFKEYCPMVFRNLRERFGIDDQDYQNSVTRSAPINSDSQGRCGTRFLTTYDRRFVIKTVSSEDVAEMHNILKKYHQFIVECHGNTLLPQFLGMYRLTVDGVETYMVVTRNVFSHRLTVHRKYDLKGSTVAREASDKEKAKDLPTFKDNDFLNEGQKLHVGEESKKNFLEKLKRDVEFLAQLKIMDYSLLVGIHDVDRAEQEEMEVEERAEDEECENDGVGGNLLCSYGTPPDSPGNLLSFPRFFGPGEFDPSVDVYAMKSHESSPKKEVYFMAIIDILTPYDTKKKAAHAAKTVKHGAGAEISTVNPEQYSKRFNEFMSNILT

SMILES: CN1CCN(c2cnc3c(C4CCN(C(=O)c5ccc(OC(F)(F)F)cc5N)CC4)ncnc3c2)CC1
% of control [1]: 49%
% of control [2]: 38%
% of control [3]: 57%
% of control [4]: 42%
% of control [5]: 18%
% of control [6]: 38%

SMILES: O=C(NCc1ccc(F)cc1)C1CCN(S(=O)(=O)c2cc(Cl)cc(Cl)c2)CC1
% of control [8]: 19%

SMILES: O=C(NCc1ncc(C(F)(F)F)cc1Cl)c1ccc2c(c1)C1(CCS(=O)(=O)CC1)[C@H](C1CC1)N2S(=O)(=O)c1ccc(F)cc1
% of control [14]: 39%
% of control [15]: 0%
% of control [16]: 0%
% of control [17]: 0%

Further lines, results first:

% of control [7]: 33%
SMILES: O=C(Nc1cnc(Oc2ccc(F)cc2)nc1)N1CCc2ncccc2[C@@H]1c1ccc(F)cc1

% of inhibition [9]: 77%
% of control [10]: 43%
% of control [11]: 16%
% of inhibition (Nischarin (Homo sapiens)): 19%
% of control [12]: 32%
% of control [13]: 48%
SMILES: CCC(=O)N[C@H]1CC[C@@H](C(=O)N(C)c2ccc(-c3nc4ccccc4o3)cc2)C1

% of control [18]: 36%
% of control [19]: 45%
SMILES: CCC(=O)N[C@@H]1CC[C@H](C(=O)N(C)c2ccc(-c3nc4ccccc4o3)cc2)C1
